Assay results from patent US20260167619A2, “INDOLINE COMPOUNDS AND DERIVATIVES AS EGFR INHIBITORS” (BeOne Medicines I GmbH, priority 2020, published 2026).

Columns and labels:
BaF3-WT cells = BaF3-WT cells (Homo sapiens, UniProt P00533); experiment: Cell antiproliferation assay (CellTiter-Glo), BaF3-WT; type: cell-based; settings: 48 h treatment, read-out: BaF3-WT IC50
Method: (§1) BaF3 cells are treated with compounds diluted in 0.2% DMSO, dilution is done according to the following protocol: (1) make 500× stock solution in DMSO from 5 mM by 5-fold dilution, total 8 doses were included; (2) make 10× solution in cell culture medium by transferring 2 μl 500× stock solution into 98 μl medium; (3) 10 μl of 10× solution is added to cells and incubate for 48 h.
(§2) After 48 h treatment, add 30 μl CellTiter-Glo reagent[CellTiter-Glo® 2.0, (Promega, Cat #G9242)] to each well; seal the plate and incubate 2 min at room temperature on a plate shaker; Allow the plate to incubate at room temperature for 10 minutes to stabilize the luminescent signal. Record luminescence on BMG PheraStar with luminescence protocol.
(§3) The IC50 value of a compound can be obtained by fitting the following equation
(§4) Wherein, X and Y are known values, and IC50, Hillslope, Top and Bottom are the parameters obtained by fitting with software. Y is the inhibition percentage (calculated from the equation), X is the concentration of the compound; IC50 is the concentration of the compound when the 50% inhibition is reached. The smaller the IC50 value is, the stronger the inhibitory ability of the compound is. Vice versa, the higher the IC50 value is, the weaker the ability the inhibitory ability of the compound is; Hillslope represents the slope of the fitted curve, generally around 1 *; Bottom represents the minimum value of the curve obtained by data fitting, which is generally 0%±20%; Top represents the maximum value of the curve obtained by data fitting, which is generally 100%±20%. The experimental data were fitted by calculating and analyzing with Dotmatics data analysis software.

[1] = target: T1, EGFR(L858R_T790M_C797S) (aa695-end, Invitrogen) (Homo sapiens, UniProt P00533, C797S/L858R/T790M); experiment: Biochemical EGFR inhibition assay (TR-FRET), L858R/T790M/C797S mutant; settings: ATP at Km, 15 min pre-incubation, 60 min reaction; read-out: LR_TM_CS (Km ATP) IC50
T1 construct: purchased Invitrogen
Outline: (§5)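 TR-FRET readout (665/620 nm ratio, Eu-cryptate anti-phosphotyrosine plus XL665-streptavidin) of biotin-poly GT phosphorylation after 60 min at room temperature, ATP at Km, following 15 min compound pre-incubation with enzyme in pH 7.5 HEPES/MgCl2 buffer; four-parameter logistic fitting gave IC50.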

[2] = target: EGFR(Dell9_T790M_C797S) (aa 669-1210, in house) (Homo sapiens, UniProt P00533, T790M/C797S, form not given); experiment: Biochemical EGFR inhibition assay (TR-FRET), Del19/T790M/C797S mutant; settings: ATP at Km, 15 min pre-incubation, 60 min reaction; read-out: Del_TM_CS (Km ATP) IC50
Outline: as §5

[3] = target: T2, EGFR (aa668-1210, Invitrogen) (Homo sapiens, UniProt P00533); experiment: Biochemical EGFR inhibition assay (TR-FRET), wild-type EGFR; settings: ATP at Km, 15 min pre-incubation, 60 min reaction; read-out: WT (Km ATP) IC50
T2 construct: EGFR (aa668-1210, Invitrogen); purchased Invitrogen
Outline: as §5

BaF3-LR_TM_CS cells = BaF3-LR_TM_CS cells (Homo sapiens, UniProt P00533, T790M/C797S/L858R, cells depend on it); experiment: Cell antiproliferation assay (CellTiter-Glo), BaF3-LR_TM_CS; type: cell-based; settings: 48 h treatment, read-out: BaF3-LR_TM_CS IC50
Method: as §1, §2, §3, §4

BaF3-Del_TM_CS cells = BaF3-Del_TM_CS cells (Homo sapiens, UniProt P00533, T790M/C797S, cells depend on it, form not given); experiment: Cell antiproliferation assay (CellTiter-Glo), BaF3-Del_TM_CS; type: cell-based; settings: 48 h treatment, read-out: BaF3-Del_TM_CS IC50
Method: as §1, §2, §3, §4

Sequence of EGFR(Dell9_T790M_C797S) (aa 669-1210, in house) (P00533 with tags, fused parts or gaps DEL746-750/T790M/C797S, form open): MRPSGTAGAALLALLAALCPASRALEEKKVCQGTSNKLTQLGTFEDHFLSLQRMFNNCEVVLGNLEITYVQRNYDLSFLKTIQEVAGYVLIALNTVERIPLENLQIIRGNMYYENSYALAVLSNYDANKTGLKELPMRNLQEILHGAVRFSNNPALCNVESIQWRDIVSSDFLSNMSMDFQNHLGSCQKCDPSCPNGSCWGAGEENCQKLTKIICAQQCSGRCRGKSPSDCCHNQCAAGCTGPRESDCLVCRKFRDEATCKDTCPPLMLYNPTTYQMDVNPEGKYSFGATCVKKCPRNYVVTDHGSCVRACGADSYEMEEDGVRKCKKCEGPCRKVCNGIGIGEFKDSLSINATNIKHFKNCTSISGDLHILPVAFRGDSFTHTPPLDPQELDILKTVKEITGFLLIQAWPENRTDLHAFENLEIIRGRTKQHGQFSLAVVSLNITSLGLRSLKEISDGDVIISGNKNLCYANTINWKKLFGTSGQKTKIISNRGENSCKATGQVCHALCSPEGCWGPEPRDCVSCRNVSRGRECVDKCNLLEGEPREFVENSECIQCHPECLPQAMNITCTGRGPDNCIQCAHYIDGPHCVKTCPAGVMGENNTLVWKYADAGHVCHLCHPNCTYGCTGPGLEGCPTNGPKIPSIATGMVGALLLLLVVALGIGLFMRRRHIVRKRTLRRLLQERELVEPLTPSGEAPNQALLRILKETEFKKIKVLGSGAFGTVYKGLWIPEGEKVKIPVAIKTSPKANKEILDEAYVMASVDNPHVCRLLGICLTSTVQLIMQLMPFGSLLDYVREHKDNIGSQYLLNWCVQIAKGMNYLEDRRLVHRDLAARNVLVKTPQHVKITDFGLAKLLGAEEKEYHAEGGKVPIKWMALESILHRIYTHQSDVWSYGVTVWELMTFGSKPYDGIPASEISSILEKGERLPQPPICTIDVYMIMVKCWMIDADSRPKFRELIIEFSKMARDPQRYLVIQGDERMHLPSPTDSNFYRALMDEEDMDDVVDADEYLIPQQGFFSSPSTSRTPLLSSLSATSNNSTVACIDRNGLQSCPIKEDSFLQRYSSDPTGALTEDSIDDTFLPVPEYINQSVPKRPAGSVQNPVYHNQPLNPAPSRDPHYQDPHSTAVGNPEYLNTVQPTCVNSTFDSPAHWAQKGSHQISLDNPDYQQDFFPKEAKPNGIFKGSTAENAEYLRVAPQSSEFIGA
Sequence of BaF3-Del_TM_CS cells (P00533 with tags, fused parts or gaps DEL746-750/T790M/C797S, form open): as above
T2 sequence (P00533 668-1210): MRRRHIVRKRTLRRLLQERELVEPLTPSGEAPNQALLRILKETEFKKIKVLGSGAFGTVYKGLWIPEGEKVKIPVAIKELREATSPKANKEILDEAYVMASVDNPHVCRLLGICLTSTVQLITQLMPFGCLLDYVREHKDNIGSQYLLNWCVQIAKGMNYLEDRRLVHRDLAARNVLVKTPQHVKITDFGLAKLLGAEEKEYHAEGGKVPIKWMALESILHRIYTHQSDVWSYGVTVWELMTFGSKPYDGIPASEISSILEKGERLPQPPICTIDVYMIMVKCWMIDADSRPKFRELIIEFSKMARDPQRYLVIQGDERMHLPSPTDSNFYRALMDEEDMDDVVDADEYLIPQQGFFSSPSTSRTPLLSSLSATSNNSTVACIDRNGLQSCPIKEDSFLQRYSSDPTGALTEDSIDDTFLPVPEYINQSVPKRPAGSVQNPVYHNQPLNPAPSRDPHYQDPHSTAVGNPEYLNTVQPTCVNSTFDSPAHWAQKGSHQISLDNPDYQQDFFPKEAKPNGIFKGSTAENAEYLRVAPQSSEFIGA
Sequence of BaF3-LR_TM_CS cells (P00533 whole entry T790M/C797S/L858R): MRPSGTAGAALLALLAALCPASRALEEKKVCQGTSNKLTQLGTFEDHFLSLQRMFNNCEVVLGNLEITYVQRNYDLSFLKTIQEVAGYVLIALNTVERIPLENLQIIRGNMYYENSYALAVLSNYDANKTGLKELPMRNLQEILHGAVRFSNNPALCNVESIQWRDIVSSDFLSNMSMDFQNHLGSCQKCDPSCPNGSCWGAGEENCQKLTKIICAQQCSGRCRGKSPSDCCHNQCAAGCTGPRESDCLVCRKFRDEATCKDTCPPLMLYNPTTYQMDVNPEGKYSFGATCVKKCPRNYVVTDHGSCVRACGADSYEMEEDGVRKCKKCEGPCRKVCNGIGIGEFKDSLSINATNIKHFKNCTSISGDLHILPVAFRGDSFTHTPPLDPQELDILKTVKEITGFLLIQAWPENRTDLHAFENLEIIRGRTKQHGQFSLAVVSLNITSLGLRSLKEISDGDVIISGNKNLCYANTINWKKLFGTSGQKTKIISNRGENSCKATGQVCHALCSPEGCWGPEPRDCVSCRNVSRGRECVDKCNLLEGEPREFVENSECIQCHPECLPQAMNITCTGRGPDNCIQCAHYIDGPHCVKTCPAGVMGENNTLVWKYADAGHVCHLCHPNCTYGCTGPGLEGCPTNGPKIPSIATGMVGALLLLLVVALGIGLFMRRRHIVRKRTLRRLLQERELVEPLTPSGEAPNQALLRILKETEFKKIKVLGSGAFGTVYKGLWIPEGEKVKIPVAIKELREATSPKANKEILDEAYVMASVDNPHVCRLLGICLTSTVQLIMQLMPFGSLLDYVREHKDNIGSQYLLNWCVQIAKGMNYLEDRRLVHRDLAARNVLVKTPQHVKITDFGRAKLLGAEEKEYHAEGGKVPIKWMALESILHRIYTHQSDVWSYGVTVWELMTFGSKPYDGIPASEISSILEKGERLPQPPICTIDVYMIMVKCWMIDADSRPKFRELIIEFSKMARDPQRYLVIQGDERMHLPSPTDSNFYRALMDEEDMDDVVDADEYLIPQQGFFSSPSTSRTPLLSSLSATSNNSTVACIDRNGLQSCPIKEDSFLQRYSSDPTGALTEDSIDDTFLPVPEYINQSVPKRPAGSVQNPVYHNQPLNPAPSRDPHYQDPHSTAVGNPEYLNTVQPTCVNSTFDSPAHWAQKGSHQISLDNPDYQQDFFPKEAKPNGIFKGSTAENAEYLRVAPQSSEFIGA
T1 sequence (P00533 695-1210 T790M/C797S/L858R): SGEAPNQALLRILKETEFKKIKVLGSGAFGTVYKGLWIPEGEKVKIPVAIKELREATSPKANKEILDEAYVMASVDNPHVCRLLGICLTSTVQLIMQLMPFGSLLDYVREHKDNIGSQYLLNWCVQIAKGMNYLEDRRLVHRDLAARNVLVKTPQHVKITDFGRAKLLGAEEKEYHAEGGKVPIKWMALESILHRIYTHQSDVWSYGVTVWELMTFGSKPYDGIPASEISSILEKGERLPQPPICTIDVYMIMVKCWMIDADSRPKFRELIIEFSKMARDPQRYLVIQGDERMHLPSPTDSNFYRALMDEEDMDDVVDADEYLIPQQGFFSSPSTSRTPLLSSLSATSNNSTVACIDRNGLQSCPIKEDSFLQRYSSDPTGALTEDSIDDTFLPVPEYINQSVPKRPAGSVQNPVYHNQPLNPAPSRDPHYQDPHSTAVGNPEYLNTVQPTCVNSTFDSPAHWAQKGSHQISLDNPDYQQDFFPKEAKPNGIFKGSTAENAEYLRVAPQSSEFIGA

| Compound | GI50 (BaF3-WT cells) [nM] | IC50 [1] [nM] | IC50 [2] [nM] | IC50 [3] [nM] | GI50 (BaF3-LR_TM_CS cells) [nM] | GI50 (BaF3-Del_TM_CS cells) [nM] |
| --- | --- | --- | --- | --- | --- | --- |
| COc1cc(N2CCC(N3CCN(C)CC3)CC2)ccc1Nc1ncc(Cl)c(Nc2cccc3c2N(S(=O)(=O)CCc2ccccc2)CC3)n1 [Example 8, 5-chloro-N^2-(2-methoxy-4-(4-(4-methylpiperazin-1-yl)piperidin-1-yl)phenyl)-N^4-(1-(phenethylsulfonyl)indolin-7-yl)pyrimidine-2,4-diamine] | 1860 | 21 | 121 | 14 | 730 | 630 |
| COc1cc(N2CCC(N3CCN(C)CC3)CC2)ccc1Nc1ncc(Cl)c(Nc2cccc3c2N(S(=O)(=O)C(C)(C)C)CC3)n1 [Example 9, N^4-(1-(tert-butylsulfonyl)indolin-7-yl)-5-chloro-N^2-(2-methoxy-4-(4-(4-methylpiperazin-1-yl)piperidin-1-yl)phenyl)pyrimidine-2,4-diamine] | 1640 | 13 | 186 | 187 | 428 | 455 |
| COc1cc(N2CCC(N3CCN(C)CC3)CC2)ccc1Nc1ncc(C(F)(F)F)c(Nc2cccc3c2N(S(C)(=O)=O)CC3)n1 [Example 31, N^2-(2-methoxy-4-(4-(4-methylpiperazin-1-yl)piperidin-1-yl)phenyl)-N^4-(1-(methylsulfonyl)indolin-7-yl)-5-(trifluoromethyl)pyrimidine-2,4-diamine] | 522 | 0.33 | 0.47 | 3.1 | 109 | 26.2 |
| CN1CCN(c2ccc(Nc3nc(Nc4cccc5c4N(S(C)(=O)=O)CC5)c4cc[nH]c4n3)cn2)CC1 [Example 123, N^2-(6-(4-methylpiperazin-1-yl)pyridin-3-yl)-N^4-(1-(methylsulfonyl)indolin-7-yl)-7H-pyrrolo[2,3-d]pyrimidine-2,4-diamine] | 376 | 4.8 | 6.3 | 573 | 169 | 64.3 |
| COc1cc(N2CCC(N3CCN(C)CC3)CC2)c(C)cc1Nc1nc(Nc2cccc3c2N(S(C)(=O)=O)CC3)c2cc[nH]c2n1 [Example 91, N^2-(2-methoxy-5-methyl-4-(4-(4-methylpiperazin-1-yl)piperidin-1-yl)phenyl)-N^4-(1-(methylsulfonyl)indolin-7-yl)-7H-pyrrolo[2,3-d]pyrimidine-2,4-diamine] | 949 | 0.42 | 0.94 | 17 | 40.5 | 12.8 |
| COc1cc(N2CCC(N3CCN(C)CC3)CC2)ccc1Nc1ncc(F)c(Nc2cccc3c2N(S(C)(=O)=O)CC3)n1 [Example 32, 5-fluoro-N^2-(2-methoxy-4-(4-(4-methylpiperazin-1-yl)piperidin-1-yl)phenyl)-N^4-(1-(methylsulfonyl)indolin-7-yl)pyrimidine-2,4-diamine] | 570 | 1.9 | 0.54 | 0.88 | 246 | 62.8 |
| CN1CCN(c2ccc(Nc3nc(Nc4cccc5c4N(S(C)(=O)=O)CC5)c4cc[nH]c4n3)c(F)c2F)CC1 [Example 85, N^2-(2,3-difluoro-4-(4-methylpiperazin-1-yl)phenyl)-N^4-(1-(methylsulfonyl)indolin-7-yl)-7H-pyrrolo[2,3-d]pyrimidine-2,4-diamine] | 274 | 8.9 | 15 | 1300 | 141 | 91.6 |
| CN(C)C1CCN(c2ccc(Nc3ncc(Br)c(Nc4cccc5c4N(S(C)(=O)=O)CC5)n3)c3c2CCO3)CC1 [Example 48, 5-bromo-N^2-(4-(4-(dimethylamino)piperidin-1-yl)-2,3-dihydrobenzofuran-7-yl)-N^4-(1-(methylsulfonyl)indolin-7-yl)pyrimidine-2,4-diamine] | 361 | 0.3 | 0.18 | 4.4 | 30.5 | 3.56 |
| COc1cc(N2CCC(N3CCN(C)CC3)CC2)ccc1Nc1nc(Nc2cccc3c2N(S(C)(=O)=O)CC3)c2[nH]ccc2n1 [Example 71, N^2-(2-methoxy-4-(4-(4-methylpiperazin-1-yl)piperidin-1-yl)phenyl)-N^4-(1-(methylsulfonyl)indolin-7-yl)-5H-pyrrolo[3,2-d]pyrimidine-2,4-diamine] | 2210 | 143 | 133 | 623 | 1470 | 920 |
| COc1cc(N2CCC(N3CCN(C)CC3)CC2)ccc1Nc1nc2c(c(Nc3cccc4c3N(S(C)(=O)=O)CC4)n1)CCC2 [Example 74, N^2-(2-methoxy-4-(4-(4-methylpiperazin-1-yl)piperidin-1-yl)phenyl)-N^4-(1-(methylsulfonyl)indolin-7-yl)-6,7-dihydro-5H-cyclopenta[d]pyrimidine-2,4-diamine] | 2350 | 53 | 131 | 525 | 617 | 436 |
| CN(C)C1CCN(c2ccc(Nc3nc(Nc4cccc5c4N(S(C)(=O)=O)CC5)c4cc[nH]c4n3)c3c2CCO3)CC1 [Example 124, N^2-(4-(4-(dimethylamino)piperidin-1-yl)-2,3-dihydrobenzofuran-7-yl)-N^4-(1-(methylsulfonyl)indolin-7-yl)-7H-pyrrolo[2,3-d]pyrimidine-2,4-diamine] | 460 | 1 | 1 | 107 | 106 | 39.1 |
| COc1cc(N2C[C@H]3CN(C)C[C@H]3C2)c(C)cc1Nc1nc(Nc2cccc3c2N(S(C)(=O)=O)CC3)c2cc[nH]c2n1 [Example 102, N^2-(2-methoxy-5-methyl-4-((3aR,6aS)-5-methylhexahydropyrrolo[3,4-c]pyrrol-2(1H)-yl)phenyl)-N^4-(1-(methylsulfonyl)indolin-7-yl)-7H-pyrrolo[2,3-d]pyrimidine-2,4-diamine] | 1710 | 1.1 | 2 | 66 | 314 | 30.4 |
| COc1cc(N2CCC(N3CCN(C)CC3)CC2)c(F)cc1Nc1nc(Nc2cccc3c2N(S(C)(=O)=O)CC3)c2cc[nH]c2n1 [Example 98, N^2-(5-fluoro-2-methoxy-4-(4-(4-methylpiperazin-1-yl)piperidin-1-yl)phenyl)-N4-(1-(methylsulfonyl)indolin-7-yl)-7H-pyrrolo[2,3-d]pyrimidine-2,4-diamine] | 1460 | 0.56 | 0.96 | 22 | 76.5 | 24.7 |
| CCCS(=O)(=O)N1CCc2cccc(Nc3nc(Nc4ccc(N5CCC(N6CCN(C)CC6)CC5)cc4OC)ncc3Cl)c21 [Example 6, 5-chloro-N^2-(2-methoxy-4-(4-(4-methylpiperazin-1-yl)piperidin-1-yl)phenyl)-N^4-(1-(propylsulfonyl)indolin-7-yl)pyrimidine-2,4-diamine] | 1850 | 1.8 | 5.1 | 8.1 | 221 | 233 |
| COc1cc(N2CCC(N3CCN(C)CC3)CC2)ccc1Nc1ncc(Cl)c(Nc2ccc(F)c3c2N(S(C)(=O)=O)CC3)n1 [Example 1, 5-chloro-N^4-(4-fluoro-1-(methylsulfonyl)indolin-7-yl)-N^2-(2-methoxy-4-(4-(4-methylpiperazin-1-yl)piperidin-1-yl)phenyl)pyrimidine-2,4-diamine] | 635 | 0.1 | 0.13 | 0.55 | 152 | 48.2 |
